Source: patent publication US20100297675A1, “SUBSTRATE AND METHOD FOR CULTURING BREAST CELLS” (priority 2008, published 2010)

Legend:
[1] = test system: breast cancer cells; details: Matrigel 3D culture system; reported; cited from earlier work
[2] = test system: MCF-7 malignant breast cells; experiment: MCF-7 malignant cells cultured on 2D TCT culture surface, treated with inhibitor, confocal fluorescence imaging; type: cell-based; details: MCF-7 on TCT 2D surface; 4 μM on alternate days for 15 days; E-cadherin/DAPI stain; FIGS. 11A-C
Protocol: Differences in cellular morphology often contribute to differences in cellular function. To understand the difference of cellular functions between breast cells cultured in a porous substrate and on a 2D culture surface, 10,000 MCF-7 malignant cell were seeded and cultured in porous PDMS (as described in Example 1) and a TCT culture surface (tissue culture treated polystyrene, “TCT”, Coming Inc) under the same conditions. The cells were treated with 4 μM of PD98059 (MAPK inhibitor) and 4 μM of LY294002 (PI3K inhibitor) on alternate days for 15 days. […] In FIGS. 11A-C, the cells were stained for E-cadherin and counterstained with a DAPI nuclei stain. In FIG. 11A, untreated cells are shown at 14 days of culture. In FIG. 11B, cells treated with PD98059 are shown at 14 days of culture. In FIG. 11C, cells treated with LY294002 are shown at 14 days of culture. The green (E-cadherin) and blue (nuclei) stains cannot be seen in the black and white reproductions presented herein.

[3] = test system: MCF-7 malignant breast cells; experiment: MCF-7 malignant cells cultured in porous PDMS substrate, treated with inhibitor, confocal fluorescence imaging; type: cell-based; details: MCF-7 in porous PDMS, 4 μM on alternate days for 15 days, F-actin/DAPI stain
Description: Porous polydimethylsiloxane (PDMS) substrates were generated by mixing a PDMS pre-polymer and a curing agent using the Sylgard 182 kit available from Dow Corning in a ratio of 10 to 1. The mixture was closely packed with sugar crystals of size ranging from 212-250 micrometers, which was then filled in a mold and cured at 100 degrees for one hour. The sugar in the cured polymer was washed out in an ultrasonic bath, forming porous PDMS substrates. The resulting porous PDMS was released from the mold and assembled into multi-well plate for cell culture. Malignant breast cells MCF-7 were seeded in wells having the porous PDMS substrates described in Example 1. 10,000 cells were seeded and cultured in EMEM cell culture medium with 10% Fetal Bovine Serum, 5% pen/strep, and 10 μg/ml of insulin. The medium was changed on alternate days. Following two weeks of culture, the cells were stained with Rhodamine phalloidin (F-actin staining) and DAPI nuclei counter stain and imaged with confocal fluorescence microscope as shown in FIG. 9. […] Differences in cellular morphology often contribute to differences in cellular function. […]

Compound: COc1cccc(-c2cc(=O)c3ccccc3o2)c1N [PD98059]
- reversal of malignant behaviors of breast cancer cells [1]: reverse malignant behaviors of breast cancer cells to certain degrees
- noticeable difference for the cells cultured on TCT surface (reversion of malignant phenotype or other change) [2]: failed to induce noticeable difference
- colony size ([3]; FIGS. 12A-C): significantly reduced the colony size
- reversion of malignant phenotype (mass structure to acini structure) ([3]; FIGS. 13A-C): reversed malignant phenotype from mass structure to normal acini structure
